“Also recorded” adds a separate entry of the source. Read-outs that look alike come from different tables or passages of the source.
How the values were obtained:
hTERT cells = test: Trypan blue cell counting (cell viability); format: cell-based, human; details: 24 hours, absence or presence of 15% CSE, trypan blue counting (FIG. 1)
Source text: (§1) In this example, the effects of […] H2S compounds, i.e. SUL90, SUL121 were studied on: • 1) The cell viability of human (immortalized) airway smooth muscle cells (hTERT cells), • 2) The release of the inflammation mediator IL-8 from hTERT cells, • 3) Airway smooth muscle contractility of bovine trachea smooth muscle strips. The samples used were: • Two SUL-compounds: SUL90, SUL121; • Human telomerase reverse transcriptase immortalized airway smooth muscles (hTERT) cells, cultured as previously described (Oldenburger et al., 2012). Prior to the experiments, cells were serum-deprived for 1 day, followed by cell treatment with the indicated concentrations of the SUL-compounds in the absence and presence of 15% cigarette smoke extract (CSE) for additional 24 hours. As controls, 1 μM fenoterol and 500 μM of the H2S donor NaHS were used. • 100% cigarette smoke extract (CSE), freshly made by combusting (Watson Marlow 323 E/D, Rotterdam, The Netherlands) the smoke of two research cigarettes (University of Kentucky 2R4F) through 25 mL of DMEM (FBS-free) at a speed of approximately 1 cigarette/5 minutes. Afterwards, CSE was diluted to 15% (Oldenburger et al., 2012).
(§2) For cell-based studies, the SUL compounds were dissolved in 0.9% NaCl as 1 mM stock solutions. For the isometric tension measurements, the SUL compounds were dissolved in 100% DMSO as 100 mM stock solution.
Assay 1: Trypan Blue Cell Counting
For cell viability measurements, trypan blue cell counting was performed as previously described (Oldenburger et al., 2012). As control, 500 μM of the H2S donor NaHS was used. Alternatively, alamar blue measurements were performed to determine cell viability essentially as described before (Oldenburger et al., 2012).
Briefly, hTERT cells were plated on 24-well plates as a cell density of 10,000 cells/well. Again cells were serum-deprived for 1 day, followed by cell treatment with the indicated concentrations of the SUL-compounds in the absence and presence of 15% cigarette smoke extract (CSE) for additional 24 hours.

[1] = test system: IL-8 release from hTERT cells; test: Release of interleukin-8 (IL-8) from hTERT cells exposed to CSE; format: cell-based, human; details: 24 hours, 15% CSE, ELISA (FIG. 2)
Source text: as §1, §2
Assay 2: Release of interleukin-8 (IL-8) from hTERT Cells
This assay was used to determine the release of interleukin-8 from hTERT cells, fenoterol (1 μM) and the H2S donor (500 μM) served as controls. 24 hours after cell stimulation with the indicated concentrations of the SUL-compounds in the absence and presence of 15% CSW, culture medium was collected to measure the IL-8 concentration in the cell supernatants according to the manufacturer's instructions (PeliKine Compact ELISA kit, Sanquin, The Netherlands), as previously described (Oldenburger et al., 2012.

[2] = test system: bovine trachea smooth muscle (BTSM) strips; test: Bovine trachea smooth muscle (BTSM) strips, isometric tension measurements; details: for effect of the ß2-adrenoceptor antagonist propranolol on the relaxation of BTSM strips induced by the compound: 1 μM propranolol, 30 minutes prior (FIG. 4); for shift of the dose response curve for isoprenaline (isoprenaline-induced relaxation): BTSM strips pre-incubated with compound at 30 μM (FIG. 5); for contraction induced by methacholine: BTSM strips pre-incubated with compound at 30 μM, methacholine dose response curve (FIG. 6); for EC50: Bos taurus, relaxation of methacholine-pre-contracted BTSM strips, mean ± SEM, 3 determinations; for relaxation of methacholine-pre-contracted BTSM strips: accumulative doses 1-300 μM, strips pre-contracted with methacholine (FIG. 3); for isometric tension of BTSM strips at 30 μM: concentration of 30 μM
Method: as §2
Assay 3: Bovein Trachea Smooth Muscle (BTSM) Strips and Isometric Tension Measurements
Isometric tension measurements were performed as described previously (Roscioni et al., 2011: Roscioni, Prins et al., 2011). BTSM strips were mounted for isometric recording in organ-baths, containing Krebs-Henseleit (KH) buffer, containing in mM: […], 25 NaHCO3, 5.5 glucose, 5.6 KCl, 1.18 MgSO4, 2.50 CaCl2, 1.28 NaH2PO4, pre-gasses with 5% of CO2 and 95% O2, pH 7.4. After dissection of the smooth muscle layer and careful removal of connective tissue, BTSM strips of approximately 1 cm length and 2 mm width were prepared. Tissue strips were cultured in DMEM supplemented with non-essential amino acid mixture (1:100), sodium pyruvate (1 mM), gentamicin (45 μg*ml−1), penicillin (100 U*ml−1), streptomycin 100 μg*ml−1, amphotericin B (1.5 μg*ml−1) apo-transferrin (5 μg*ml−1) and ascorbic acid (100 μM). The BTSM strips were cultured for 1-3 days before isometric tension measurement in an Innova 4000 incubator shaker 37° C. 55 rpm).
For isometric tension measurements (Roscioni et al., 2011: Roscioni, Prins et al., 2011). BTSM strips were calibrated, were mounted into the transducers and submerged into the organ baths in pre-gassed KH buffer. Each strip was adjusted to a basal tension of 3 gram. Then, the strips were washed, equilibrated again for 60 minutes, followed by pre-contractions induced by 1×10-3.5 μM methacholine. To analyze acute effects of the SUL-compounds on the isometric tension, the strips were incubated with accumulative doses of the SUL-compounds (1-300 μM), followed by the addition of 0.01 μM isoprenaline.
To analyze potential role of the ß2-AR in the effects induced by the SUL-compounds, the strips were incubated with 1 μM propranonol for 30 minutes prior addition of the SUL-compounds. To analyze potential effects of the SUL-compounds on the isoprenaline-induced relaxation, the strips were first incubated with the SUL-compounds (30 μM each), followed by the addition of accumulative doses of isoprenaline (1×10.5-1 μM). Finally, to analyze potential effects of the SUL-compounds on the methacholine-induced contraction, the strips were first incubated with the SUL-compounds (30 μM each), followed by addition of accumulative doses of methacholine (0.001-30 μM), before the addition of 0.01 μM isoprenaline.
Data are shown are mean±standard error of the mean. One-way ANOVA followed by Bonferroni post hoc test, 2-tailed paired t-test, two-way ANOVA was used when appropriate to identify statistical difference between means. A statistical difference was defined as significant at p<0.05.

[3] = 1 μM propranolol pre-incubation, read-out: pD2, Propranolol (converted)
[4] = solvent treated, read-out: pD2, Solvent (converted)

| SMILES | CSE-induced IL-8 release from hTERT cells [1] | effect of the ß2-adrenoceptor antagonist propranolol on the relaxation of BTSM strips induced by the compound [2] | shift of the dose response curve for isoprenaline (isoprenaline-induced relaxation) [2] | contraction induced by methacholine [2] | EC50 [2, 3] | EC50 [2, 4] | relaxation of methacholine-pre-contracted BTSM strips [2] | isometric tension of BTSM strips at 30 μM [2] | other results |
| --- | --- | --- | --- | --- | --- | --- | --- | --- | --- |
| Cc1c(C)c2c(c(C)c1O)CCC(C)(C(=O)N1CCNCC1)O2 (centres unmarked) [Sul-121, (6-hydroxy-2,5,7,8-tetramethylchroman-2-yl)(piperazin-1-yl)methanone] | significantly reduce the release; also recorded: inhibit CSE-induced IL-8 release | not affected by propranolol; also recorded: does not alter the relaxation | significant right-ward shift; also recorded: shifts the dose response curve or isoprenaline to the right | decrease the contraction | 316 µM | 316 µM | even more pronounced relaxation, reaching statistical significance; also recorded: induce relaxation | leave the isometric tension unaffected | cell viability of hTERT cells (hTERT cells; listed as SUL121): do not severely alter cell viability; cell viability of hTERT cells (hTERT cells; listed as SUL-121): seem not to severely alter the cell viability; CSE-induced IL-8 release from hTERT cells ([1]; listed as SUL121): inhibit the cellular IL-8 release; effect of the ß2-adrenoceptor antagonist propranolol on the relaxation of BTSM strips induced by the compound ([2]; listed as SUL121): ß2-adrenoceptor-independent; shift of the dose response curve for isoprenaline (isoprenaline-induced relaxation) ([2]; listed as SUL212): right-ward shift; contraction induced by methacholine ([2]; listed as SUL121): significantly reduce the contraction; contraction induced by methacholine ([2]; listed as Sul121): reduced the contraction |
| CC(C)NCC(O)c1ccc(O)c(O)c1 (centres unmarked) [Isoprenaline, reference compound] |  |  |  |  | 3.98 µM | 0.02 µM |  |  |  |
| Cc1c(C)c2c(c(C)c1O)CCC(C)(C(=O)NO)O2 (centres unmarked) [Sul-90, N,6-dihydroxy-2,5,7,8-tetramethylchroman-2-carboxamide] | significantly reduce the release; also recorded: inhibit CSE-induced IL-8 release | trend to a left-ward shift; also recorded: does not alter the relaxation | not | reduced the contraction; also recorded: decrease the contraction | 316 µM | 398 µM | shows a trend to induce relaxation | leave the isometric tension unaffected | cell viability of hTERT cells (hTERT cells; listed as SUL90): do not severely alter cell viability; cell viability of hTERT cells (hTERT cells; listed as SUL-90): seem not to severely alter the cell viability; CSE-induced IL-8 release from hTERT cells ([1]; listed as SUL90): inhibit the cellular IL-8 release; effect of the ß2-adrenoceptor antagonist propranolol on the relaxation of BTSM strips induced by the compound ([2]; listed as SUL90): ß2-adrenoceptor-independent; effect of the ß2-adrenoceptor antagonist propranolol on the relaxation of BTSM strips induced by the compound ([2]; listed as Sul90): not affected by propranolol; contraction induced by methacholine ([2]; listed as SUL90): significantly reduce the contraction; concentrations at which a trend to relaxation of BTSM strips is shown ([2]; methacholine-pre-contracted BTSM strips (FIG. 3)): higher than 100 μM |
| Cc1c(C)c2c(c(C)c1O)CCC(C)(C(=O)N1CCN(CC(=O)O)CC1)O2 (centres unmarked) [Sul-136, 2-(4-(6-hydroxy-2,5,7,8-tetramethylchroman-2-carbonyl)piperazin-1-yl)acetic acid] |  |  |  |  |  |  | do not alter the contractile tone |  | cell viability of hTERT cells (hTERT cells): do not alter cell viability |
| CC(C)NCC(O)COc1cccc2ccccc12 (centres unmarked) [propranolol, reference compound] |  |  |  |  |  |  |  |  | shift of the dose-response curve for isoprenaline by propranolol ([2]; BTSM strips pre-incubated with 1 μM propranolol (FIG. 4)): right-ward shift |
